Converted amounts (≈) assume the structure as drawn.
Columns and labels:
Assay type in all cases: cell-based
[1] = test system: Acinetobacter calcoaceticus ATCC 15473; experiment: Antibacterial activity, MIC; settings: ATCC15473, ATCC 15473, agar two-fold dilution, 37° C., 20 hours, read-out: MIC
How it was run: (§1)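 Incubation at 37 °C for 20 h followed inoculation of 2 μl standard strain (10^7 CFU/ml) onto agar carrying the compound. Compound was incorporated into Mueller-Hinton agar as two-fold serial dilutions.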

[2] = test system: Bacillus cereus ATCC 11778; experiment: Antibacterial activity, MIC; settings: ATCC11778, ATCC 11778, agar two-fold dilution, 37° C., 20 hours, read-out: MIC
How it was run: as §1

[3] = test system: Bacillus megaterium ATCC 9885; experiment: Antibacterial activity, MIC; settings: Priestia megaterium, ATCC9885; ATCC 9885; agar two-fold dilution, 37° C., 20 hours; read-out: MIC
How it was run: as §1

[4] = test system: Citrobacter freundii ATCC 8090; experiment: Antibacterial activity, MIC; settings: ATCC8090, ATCC 8090, agar two-fold dilution, 37° C., 20 hours, read-out: MIC
How it was run: as §1

[5] = test system: Enterobacter aerogenes ATCC 29751; experiment: Antibacterial activity, MIC; settings: Klebsiella aerogenes, ATCC29751; ATCC 29751; agar two-fold dilution, 37° C., 20 hours; read-out: MIC
How it was run: as §1

[6] = test system: Enterobacter cloacae ATCC 27508; experiment: Antibacterial activity, MIC; settings: ATCC27508, ATCC 27508, agar two-fold dilution, 37° C., 20 hours, read-out: MIC
How it was run: as §1

[7] = test system: Escherichia coli ATCC 10536; experiment: Antibacterial activity, MIC; settings: ATCC10536, agar two-fold dilution, 37° C., 20 hours
How it was run: as §1

[8] = test system: Escherichia coli ATCC 25922; experiment: Antibacterial activity, MIC; settings: ATCC25922, agar two-fold dilution, 37° C., 20 hours
How it was run: as §1

[9] = test system: Klebsiella pneumoniae ATCC 10031; experiment: Antibacterial activity, MIC; settings: ATCC10031, ATCC 10031, agar two-fold dilution, 37° C., 20 hours, read-out: MIC
How it was run: as §1

[10] = test system: Micrococcus luteus ATCC 9341; experiment: Antibacterial activity, MIC; settings: ATCC9341, ATCC 9341, agar two-fold dilution, 37° C., 20 hours, read-out: MIC
How it was run: as §1

[11] = test system: Morganella morganii ATCC 8076h; experiment: Antibacterial activity, MIC; settings: ATCC8076H, agar two-fold dilution, 37° C., 20 hours
How it was run: as §1

[12] = test system: Proteus mirabilis ATCC 25933; experiment: Antibacterial activity, MIC; settings: ATCC25933, ATCC 25933, agar two-fold dilution, 37° C., 20 hours, read-out: MIC
How it was run: as §1

[13] = test system: Proteus vulgaris ATCC 6059; experiment: Antibacterial activity, MIC; settings: ATCC6059, ATCC 6059, agar two-fold dilution, 37° C., 20 hours, read-out: MIC
How it was run: as §1

[14] = test system: Providencia rettgeri ATCC 9250; experiment: Antibacterial activity, MIC; settings: ATCC9250, agar two-fold dilution, 37° C., 20 hours
How it was run: as §1

[15] = test system: Pseudomonas aeruginosa ATCC 10145; experiment: Antibacterial activity, MIC; settings: ATCC10145, ATCC 10145, agar two-fold dilution, 37° C., 20 hours, read-out: MIC
How it was run: as §1

[16] = test system: Pseudomonas aeruginosa ATCC 25619; experiment: Antibacterial activity, MIC; settings: ATCC25619, ATCC 25619, agar two-fold dilution, 37° C., 20 hours, read-out: MIC
How it was run: as §1

[17] = test system: Pseudomonas aeruginosa ATCC 27853; experiment: Antibacterial activity, MIC; settings: ATCC27853, ATCC 27853, agar two-fold dilution, 37° C., 20 hours, read-out: MIC
How it was run: as §1

[18] = test system: Salmonella typhimurium ATCC 14028; experiment: Antibacterial activity, MIC; settings: Salmonella enterica; ATCC 14028; agar two-fold dilution, 37° C., 20 hours; read-out: MIC
How it was run: as §1

[19] = test system: Serratia marcescens ATCC 27117; experiment: Antibacterial activity, MIC; settings: ATCC27117, ATCC 27117, agar two-fold dilution, 37° C., 20 hours, read-out: MIC
How it was run: as §1

[20] = test system: Shigella flexneri ATCC 11836; experiment: Antibacterial activity, MIC; settings: ATCC11836, agar two-fold dilution, 37° C., 20 hours
How it was run: as §1

[21] = test system: Shigella sonnei ATCC 11060; experiment: Antibacterial activity, MIC; settings: ATCC11060, ATCC 11060, agar two-fold dilution, 37° C., 20 hours, read-out: MIC
How it was run: as §1

[22] = test system: Staphylococcus aureus ATCC 10537; experiment: Antibacterial activity, MIC; settings: ATCC10537, ATCC 10537, agar two-fold dilution, 37° C., 20 hours, read-out: MIC
How it was run: as §1

[23] = test system: Staphylococcus aureus ATCC 6538p; experiment: Antibacterial activity, MIC; settings: ATCC6538P, ATCC 6538p, agar two-fold dilution, 37° C., 20 hours, read-out: MIC
How it was run: as §1

[24] = test system: Staphylococcus epidermidis ATCC 12228; experiment: Antibacterial activity, MIC; settings: ATCC12228, ATCC 12228, agar two-fold dilution, 37° C., 20 hours, read-out: MIC
How it was run: as §1

[25] = test system: Streptococcus faecalis ATCC 29212; experiment: Antibacterial activity, MIC; settings: Enterococcus faecalis, ATCC29212; ATCC 29212; agar two-fold dilution, 37° C., 20 hours; read-out: MIC
How it was run: as §1

Escherichia coli = experiment: Antibacterial activity against clinically isolated strains, MIC; settings: 38 clinical isolates, broth microdilution test
Klebsiella pneumoniae = experiment: as above; settings: 10 clinical isolates, broth microdilution test; for MIC90: read-out: MIC 90%
[26] = test system: Staphylococcus aureus methicillin susceptible; experiment: as above; settings: methicillin susceptible, 42 clinical isolates, broth microdilution test; for MIC90: read-out: MIC 90%
[27] = test system: Staphylococcus aureus methicillin resistant; experiment: as above; settings: methicillin resistant, 7 clinical isolates, broth microdilution test; for MIC90: read-out: MIC 90%
Pseudomonas aeruginosa = experiment: as above; settings: 54 clinical isolates, broth microdilution test; for MIC90: read-out: MIC 90%

Compound | MIC [1] [µg/mL] | MIC [2] [µg/mL] | MIC [3] [µg/mL] | MIC [4] [µg/mL] | MIC [5] [µg/mL] | MIC [6] [µg/mL] | MIC [7] [µg/mL] | MIC [8] [µg/mL] | MIC [9] [µg/mL] | MIC [10] [µg/mL] | MIC [11] [µg/mL] | MIC [12] [µg/mL] | MIC [13] [µg/mL] | MIC [14] [µg/mL] | MIC [15] [µg/mL] | MIC [16] [µg/mL] | MIC [17] [µg/mL] | MIC [18] [µg/mL] | MIC [19] [µg/mL] | MIC [20] [µg/mL] | further results
C#CCO/N=C(\C(=O)NC1C(=O)N2C(C(=O)[O-])=C(CSc3nc(N)cc(N)[n+]3C)CSC12)c1csc(N)n1 (centres unmarked) [Compound I-46] | 2 (≈ 3.47 µM) | 8 (≈ 13.9 µM) | 0.063 (≈ 0.109 µM) | 0.063 (≈ 0.109 µM) | 0.25 (≈ 0.434 µM) | ≤ 0.008 | 0.063 (≈ 0.109 µM) | 0.063 (≈ 0.109 µM) | ≤ 0.008 | 0.016 (≈ 0.0278 µM) | ≤ 0.008 | 0.063 (≈ 0.109 µM) | 0.13 (≈ 0.226 µM) | ≤ 0.008 | 4 (≈ 6.95 µM) | 0.5 (≈ 0.869 µM) | 2 (≈ 3.47 µM) | 0.25 (≈ 0.434 µM) | 0.13 (≈ 0.226 µM) | 0.016 (≈ 0.0278 µM) | MIC [21]: 0.063 µg/mL (≈ 0.109 µM); MIC [22]: 0.13 µg/mL (≈ 0.226 µM); MIC [23]: 0.13 µg/mL (≈ 0.226 µM); MIC [24]: 0.031 µg/mL (≈ 0.0539 µM); MIC [25]: 16 µg/mL (≈ 27.8 µM); MIC50 (Escherichia coli): 0.13 µg/mL (≈ 0.226 µM); MIC90 (Escherichia coli): 0.25 µg/mL (≈ 0.434 µM); MIC50 (Klebsiella pneumoniae): 0.13 µg/mL (≈ 0.226 µM); MIC90 (Klebsiella pneumoniae): 0.13 µg/mL (≈ 0.226 µM); MIC50 [26]: 0.25 µg/mL (≈ 0.434 µM); MIC90 [26]: 0.25 µg/mL (≈ 0.434 µM); MIC50 [27]: > 32 µg/mL; MIC90 [27]: > 32 µg/mL; MIC50 (Pseudomonas aeruginosa): 4 µg/mL (≈ 6.95 µM); MIC90 (Pseudomonas aeruginosa): 8 µg/mL (≈ 13.9 µM)
C#CCO/N=C(\C(=O)NC1C(=O)N2C(C(=O)[O-])=C(CSc3nc(N)cc(N)[n+]3N)CSC12)c1csc(N)n1 (centres unmarked) [Compound I-18] | 2 (≈ 3.47 µM) | 8 (≈ 13.9 µM) | 0.063 (≈ 0.109 µM) | 0.063 (≈ 0.109 µM) | 0.25 (≈ 0.434 µM) | ≤ 0.008 | 0.13 (≈ 0.225 µM) | 0.063 (≈ 0.109 µM) | ≤ 0.008 | 0.013 (≈ 0.0225 µM) | ≤ 0.008 | 0.13 (≈ 0.225 µM) | 0.13 (≈ 0.225 µM) | ≤ 0.008 | 4 (≈ 6.94 µM) | 0.5 (≈ 0.867 µM) | 2 (≈ 3.47 µM) | 0.25 (≈ 0.434 µM) | 0.13 (≈ 0.225 µM) | 0.016 (≈ 0.0277 µM) | MIC [21]: 0.13 µg/mL (≈ 0.225 µM); MIC [22]: 0.25 µg/mL (≈ 0.434 µM); MIC [23]: 0.25 µg/mL (≈ 0.434 µM); MIC [24]: 0.063 µg/mL (≈ 0.109 µM); MIC [25]: 32 µg/mL (≈ 55.5 µM); MIC50 (Escherichia coli): 0.13 µg/mL (≈ 0.225 µM); MIC90 (Escherichia coli): 0.25 µg/mL (≈ 0.434 µM); MIC (Klebsiella pneumoniae): 0.13 µg/mL (≈ 0.225 µM); MIC50 (Klebsiella pneumoniae): 0.13 µg/mL (≈ 0.225 µM); MIC90 (Klebsiella pneumoniae): 0.13 µg/mL (≈ 0.225 µM); MIC50 [26]: 0.25 µg/mL (≈ 0.434 µM); MIC90 [26]: 0.25 µg/mL (≈ 0.434 µM); MIC50 [27]: 128 µg/mL (≈ 222 µM); MIC90 [27]: > 128 µg/mL; MIC50 (Pseudomonas aeruginosa): 4 µg/mL (≈ 6.94 µM); MIC90 (Pseudomonas aeruginosa): 8 µg/mL (≈ 13.9 µM)

— patent publication US5202315A, “Cephalosporin compounds” (Lucky, Ltd., priority 1989, dated 1993)
